For 7 compounds, GI50 and TGI results are on record in PubChem BioAssay (NCI).

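Growth conditions: 96-well plates. Treatment: test compound, 48 hours, 5 concentrations. Analysis: linear interpolation between bracketing concentrations; unreached endpoints set to highest concentration. Here, GI50 denotes the concentration required for 50% inhibition of growth. TGI: total growth inhibition.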 Where only a bound is given, the exact number is not on record here.

Test systems include EKVX NSCLC; HS 578T breast; SNB-75 CNS; LOX IMVI melanoma; U251 CNS; ACHN renal; OVCAR-4 ovarian; UACC-62 melanoma; KM12 colon; MOLT-4 leukemia.
Test in all cases: inhibition of tumour cell growth, NCI panel, 48 h

In the case of `C[n+]1c2ccccc2c(NC2CCNCC2)c2[nH]c3ccccc3c21`, the GI50 with EKVX NSCLC was 0.391 µM; in the assay on HS 578T breast, 0.116 µM; in the assay with SNB-75 CNS, 0.524 µM; in the assay with LOX IMVI melanoma it was 1.68 µM; with U251 CNS, 0.198 µM; in the assay on ACHN renal, 4.68 µM. Further, the GI50 in the assay on OVCAR-4 ovarian was 0.253 µM; in the assay with UACC-62 melanoma it was 0.215 µM; in the assay with KM12 colon it was 0.718 µM; in the assay on MOLT-4 leukemia it was 0.114 µM. The TGI with EKVX NSCLC worked out at 5.39 µM; with HS 578T breast it was 0.82 µM; in the assay on SNB-75 CNS, 2.72 µM; with LOX IMVI melanoma, 5.52 µM; in the assay with U251 CNS it was 1.91 µM; in the assay on ACHN renal, 32.1 µM. For the same compound, the TGI in the assay on OVCAR-4 ovarian came to 2.57 µM; in the assay on UACC-62 melanoma, 1.08 µM; with KM12 colon, 5.77 µM.
For the compound `COc1ccc(-n2c(N)c(C(=O)NCCN3CCOCC3)c3nc4ccccc4nc32)cc1OC`, the GI50 was 40.2 µM with EKVX NSCLC; 9.27 µM in the assay with HS 578T breast; 38.7 µM in the assay with SNB-75 CNS; 5.69 µM in the assay on LOX IMVI melanoma; 8.68 µM in the assay on U251 CNS; 4.16 µM with ACHN renal. For the same compound, the GI50 in the assay on OVCAR-4 ovarian was 68.5 µM; with UACC-62 melanoma, 9.82 µM; in the assay with KM12 colon, 8.26 µM; with MOLT-4 leukemia, 2.87 µM. For the same compound, the TGI with EKVX NSCLC, in the assay on HS 578T breast, in the assay with SNB-75 CNS, in the assay with LOX IMVI melanoma, in the assay on U251 CNS and in the assay with ACHN renal was over 100 µM each time. In addition, the TGI with OVCAR-4 ovarian is over 100 µM; in the assay with UACC-62 melanoma, over 100 µM; with KM12 colon, over 100 µM; in the assay with MOLT-4 leukemia it was 27.4 µM.
For `CNCCNc1nc2ccccc2c2c(=O)c3cccc(OC)c3sc12`, the GI50 in the assay with EKVX NSCLC is 1.56 µM; in the assay on HS 578T breast it was 1.57 µM; with SNB-75 CNS, 1.1 µM; in the assay with LOX IMVI melanoma, 1.27 µM; with U251 CNS it was 1.24 µM; in the assay with ACHN renal it was 1.01 µM. In addition, the GI50 in the assay with OVCAR-4 ovarian was 1.47 µM; in the assay with UACC-62 melanoma it was 1.57 µM; in the assay with KM12 colon, 1.62 µM; in the assay on MOLT-4 leukemia, 0.427 µM. Moreover, the TGI in the assay on EKVX NSCLC was 3.05 µM; in the assay on HS 578T breast it was 3.97 µM; with SNB-75 CNS, 2.33 µM; in the assay on LOX IMVI melanoma, 2.63 µM; in the assay with U251 CNS, 2.65 µM; in the assay with ACHN renal, 2.3 µM. Moreover, the TGI was 3.16 µM in the assay with OVCAR-4 ovarian, 2.97 µM with UACC-62 melanoma, 3.11 µM with KM12 colon and 1.63 µM with MOLT-4 leukemia.
For `O=C1c2cc3c(cc2-c2c1c1ccc([N+](=O)[O-])cc1c(=O)n2CCCCl)OCO3`, the GI50 in the assay with EKVX NSCLC is 6.13 µM; with HS 578T breast, over 100 µM; in the assay on SNB-75 CNS, 3.35 µM; with LOX IMVI melanoma it was 0.0742 µM; in the assay with U251 CNS, 0.0828 µM; in the assay with ACHN renal, 0.0707 µM. Besides, the GI50 was 7.34 µM in the assay on OVCAR-4 ovarian, 0.176 µM in the assay on UACC-62 melanoma, 2.27 µM in the assay on KM12 colon and 0.0528 µM in the assay on MOLT-4 leukemia. For the same compound, the TGI in the assay with EKVX NSCLC is over 100 µM; in the assay on HS 578T breast it was over 100 µM; in the assay with SNB-75 CNS, over 100 µM; in the assay on LOX IMVI melanoma it was over 100 µM; in the assay with ACHN renal, 0.234 µM; with OVCAR-4 ovarian, over 100 µM. Also, the results for the TGI in the assay with UACC-62 melanoma, in the assay on KM12 colon and with MOLT-4 leukemia were 2.5 µM, over 100 µM and over 100 µM, respectively.
As to `C=C1C(=O)O[C@H]2[C@H]1CC/C(COC(=O)CCC(=O)OC/C1=C/CC[C@@]3(C)O[C@H]3[C@H]3OC(=O)C(=C)[C@@H]3CC1)=C\CC[C@@]1(C)O[C@@H]21`, the GI50 is 2.55 µM in the assay with EKVX NSCLC; 2.74 µM with HS 578T breast; 15.1 µM in the assay with SNB-75 CNS; 1.37 µM in the assay on LOX IMVI melanoma; 2.78 µM in the assay with U251 CNS; 0.753 µM in the assay on ACHN renal. Besides, the GI50 was 2.07 µM with OVCAR-4 ovarian, 1.86 µM in the assay with UACC-62 melanoma, 3.88 µM in the assay with KM12 colon and 0.561 µM with MOLT-4 leukemia. In addition, the TGI is 11.6 µM with EKVX NSCLC; 16 µM with HS 578T breast; 45.7 µM in the assay with SNB-75 CNS; 2.75 µM in the assay with LOX IMVI melanoma; 9.18 µM with U251 CNS; 2.03 µM in the assay on ACHN renal. Moreover, the TGI with OVCAR-4 ovarian was 5.9 µM; in the assay with UACC-62 melanoma it was 6.55 µM; with KM12 colon it was 16.6 µM; with MOLT-4 leukemia it was 2.8 µM.
Take `O=C1c2cccnc2-c2nc(-c3ccc([N+](=O)[O-])cc3)cc3c2c1nc1ccccc13`: the GI50 in the assay with EKVX NSCLC is 10.7 µM; with HS 578T breast, 4.1 µM; in the assay with SNB-75 CNS, 4.43 µM; in the assay on LOX IMVI melanoma, 2.28 µM; in the assay on U251 CNS, 3.44 µM; in the assay with ACHN renal it was 5.03 µM. Moreover, the GI50 is 13.4 µM in the assay on OVCAR-4 ovarian, 5.43 µM with UACC-62 melanoma, 3.35 µM in the assay on KM12 colon and 53.5 µM in the assay with MOLT-4 leukemia. The TGI was 44.6 µM with EKVX NSCLC; 23.6 µM with HS 578T breast; 12.1 µM in the assay on SNB-75 CNS; over 100 µM with LOX IMVI melanoma; over 100 µM with U251 CNS; 30 µM in the assay on ACHN renal. Besides, the TGI was 30.7 µM in the assay with OVCAR-4 ovarian, 15.6 µM in the assay on UACC-62 melanoma, 19.4 µM in the assay on KM12 colon and over 100 µM with MOLT-4 leukemia.
With `O=Cc1ccc(C(F)(F)F)cc1.[C-]#[O+].[C-]#[O+].[C-]#[O+].[Cr]`, the GI50 was 16.3 µM in the assay on EKVX NSCLC; 24.6 µM in the assay on HS 578T breast; 15.6 µM with SNB-75 CNS; 26.2 µM in the assay with LOX IMVI melanoma; 26.8 µM in the assay with U251 CNS; 30.2 µM in the assay with ACHN renal. Also, the GI50 in the assay on OVCAR-4 ovarian was 27.1 µM; in the assay on UACC-62 melanoma, 13.3 µM; in the assay with KM12 colon, 24.6 µM; with MOLT-4 leukemia it was 15.4 µM. In addition, the TGI in the assay with EKVX NSCLC is 45 µM; in the assay with HS 578T breast, 75.9 µM; in the assay on SNB-75 CNS it was 49.5 µM; in the assay with LOX IMVI melanoma it was over 100 µM; in the assay on U251 CNS, over 100 µM; in the assay on ACHN renal it was over 100 µM. The TGI is over 100 µM with OVCAR-4 ovarian, 37 µM in the assay on UACC-62 melanoma, 91.5 µM in the assay with KM12 colon and 68 µM in the assay with MOLT-4 leukemia.
